Measurements from article PMC10023972, “Saturated fatty acid– and/or monounsaturated fatty acid–containing phosphatidic acids selectively interact with heat shock protein 27” (The Journal of Biological Chemistry, 2023).

Target: T1, HSP27 (heat shock protein 27, HSPβ1; 6×His-HSP27) (Homo sapiens, UniProt P04792)
T1 construct: gene HSPB1; full length (205 aa), N-terminal 6×His tag (pET-28a), E. coli Rosetta 2 (DE3), Ni-NTA, ~30 kDa band; large oligomer (more than octamer)
Assay: liposome co-sedimentation (ultracentrifugation), Western blot densitometry
Type: binding
Conditions: unreliable; extrapolated beyond the 0-25 μM range; PS in liposomes (PS/egg PC/cholesterol 20/50/30 mol%), 0.1 μM protein, pH 7.4, 4 °C

T1 sequence (P04792 whole entry): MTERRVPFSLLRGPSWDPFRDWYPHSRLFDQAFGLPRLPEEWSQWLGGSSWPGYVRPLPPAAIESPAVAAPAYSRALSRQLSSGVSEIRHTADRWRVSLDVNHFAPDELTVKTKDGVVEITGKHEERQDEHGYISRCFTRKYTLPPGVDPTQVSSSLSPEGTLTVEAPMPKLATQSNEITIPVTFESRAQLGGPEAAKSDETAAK

SMILES: CCCCCCCCCCCCCCCC(=O)OC[C@H](COP(=O)(O)OC[C@H](N)C(=O)O)OC(=O)CCCCCCCCCCCCCCC [16:0/16:0-PS, 1,2-dipalmitoyl-sn-glycero-3-phosphoserine]
- extrapolated Kd: ~ 100 μM
